# Tests used:
# Homo sapiens = species: Homo sapiens; experiment: Inhibition of human P70S6K catalytic domain expressed in baculovirus assessed as substrate phosphorylation using fluorescence-labelled peptides as substrate at 70 uM after 90 mins by microfluidic peptide phosphorylation assay
# [1] = target: Mitogen-activated protein kinase kinase kinase kinase 4 (Homo sapiens) (UniProt O95819); experiment: Inhibition of human HGK catalytic domain expressed in baculovirus assessed as substrate phosphorylation using fluorescence-labelled peptides as substrate at 70 uM after 90 mins by microfluidic peptide phosphorylation assay
# [2] = target: T1, Interleukin-1 receptor-associated kinase 4 (Homo sapiens) (UniProt Q9NWZ3); experiment: Inhibition of human IRAK4 catalytic domain expressed in baculovirus assessed as substrate phosphorylation using fluorescence-labelled peptides as substrate at 0.2 uM after 90 mins by microfluidic peptide phosphorylation assay
# T1 sequence (whole entry): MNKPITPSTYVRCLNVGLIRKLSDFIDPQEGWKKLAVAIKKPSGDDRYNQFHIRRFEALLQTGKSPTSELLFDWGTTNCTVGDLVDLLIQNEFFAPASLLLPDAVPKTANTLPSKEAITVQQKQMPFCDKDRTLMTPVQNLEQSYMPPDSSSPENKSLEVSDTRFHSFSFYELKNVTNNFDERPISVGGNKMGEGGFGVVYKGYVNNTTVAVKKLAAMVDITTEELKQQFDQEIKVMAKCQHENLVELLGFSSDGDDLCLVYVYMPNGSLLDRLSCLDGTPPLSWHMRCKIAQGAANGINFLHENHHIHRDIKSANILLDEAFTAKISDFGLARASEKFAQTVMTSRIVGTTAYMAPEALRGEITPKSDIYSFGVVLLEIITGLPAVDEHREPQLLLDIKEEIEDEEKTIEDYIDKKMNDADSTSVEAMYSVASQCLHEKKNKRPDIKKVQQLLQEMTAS
# [3] = target: Aurora kinase B (Homo sapiens) (UniProt Q96GD4); experiment: Inhibition of human full length AurB expressed in baculovirus assessed as substrate phosphorylation using fluorescence-labelled peptides as substrate at 0.2 uM after 90 mins by microfluidic peptide phosphorylation assay
# [4] = target: Dual specificity tyrosine-phosphorylation-regulated kinase 1A (Rattus norvegicus) (UniProt Q63470); experiment: Inhibition of rat full length DYRK1a expressed in Escherichia coli cell assessed as substrate phosphorylation using fluorescence-labelled peptides as substrate at 0.2 uM after 90 mins by microfluidic peptide phosphorylation assay
# [5] = target: Fibroblast growth factor receptor 3 (Homo sapiens) (UniProt P22607); experiment: Inhibition of human FGFR3 catalytic domain expressed in baculovirus assessed as substrate phosphorylation using fluorescence-labelled peptides as substrate at 95 uM after 90 mins by microfluidic peptide phosphorylation assay
# [6] = target: Tyrosine-protein kinase HCK (Homo sapiens) (UniProt P08631); experiment: Inhibition of human HCK catalytic domain expressed in baculovirus assessed as substrate phosphorylation using fluorescence-labelled peptides as substrate at 95 uM after 90 mins by microfluidic peptide phosphorylation assay
# [7] = target: Tyrosine-protein kinase ABL1 (Homo sapiens) (UniProt P00519); experiment: Inhibition of human full-length ABL expressed in baculovirus assessed as substrate phosphorylation using fluorescence-labelled peptides as substrate at 95 uM after 90 mins by microfluidic peptide phosphorylation assay
# [8] = target: T2, Cytoplasmic tyrosine-protein kinase BMX (Homo sapiens) (UniProt P51813); experiment: Inhibition of human full length BMX expressed in baculovirus assessed as substrate phosphorylation using fluorescence-labelled peptides as substrate at 1000 uM after 90 mins by microfluidic peptide phosphorylation assay
# T2 sequence (whole entry): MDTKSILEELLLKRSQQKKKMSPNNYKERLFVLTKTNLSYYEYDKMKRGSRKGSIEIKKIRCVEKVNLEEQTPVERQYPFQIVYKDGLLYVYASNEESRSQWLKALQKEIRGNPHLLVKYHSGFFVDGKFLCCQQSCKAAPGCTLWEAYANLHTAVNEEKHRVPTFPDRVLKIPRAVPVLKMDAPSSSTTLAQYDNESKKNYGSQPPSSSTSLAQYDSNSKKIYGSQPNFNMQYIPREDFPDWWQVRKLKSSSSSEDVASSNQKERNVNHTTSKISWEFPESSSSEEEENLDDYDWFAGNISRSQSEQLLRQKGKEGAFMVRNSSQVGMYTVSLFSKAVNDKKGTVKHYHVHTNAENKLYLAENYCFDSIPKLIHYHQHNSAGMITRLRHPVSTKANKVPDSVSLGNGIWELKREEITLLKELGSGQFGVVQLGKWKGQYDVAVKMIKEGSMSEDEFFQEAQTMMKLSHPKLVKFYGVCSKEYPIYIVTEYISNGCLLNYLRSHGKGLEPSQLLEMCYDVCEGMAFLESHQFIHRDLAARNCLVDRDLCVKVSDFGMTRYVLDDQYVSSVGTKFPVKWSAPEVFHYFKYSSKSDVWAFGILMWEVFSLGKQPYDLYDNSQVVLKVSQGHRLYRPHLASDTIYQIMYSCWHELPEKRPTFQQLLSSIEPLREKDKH
# [9] = target: Ribosomal protein S6 kinase alpha-2 (Homo sapiens) (UniProt Q15349); experiment: Inhibition of human full length RSK3 expressed in baculovirus assessed as substrate phosphorylation using fluorescence-labelled peptides as substrate at 2 uM after 90 mins by microfluidic peptide phosphorylation assay
# [10] = target: Ribosomal protein S6 kinase alpha-3 (Homo sapiens) (UniProt P51812); experiment: Inhibition of human full length RSK2 expressed in baculovirus assessed as substrate phosphorylation using fluorescence-labelled peptides as substrate at […] after 90 mins by microfluidic peptide phosphorylation assay
# [11] = target: Aurora kinase B (Homo sapiens) (UniProt Q96GD4); experiment: Inhibition of human full length AurB expressed in baculovirus assessed as substrate phosphorylation using fluorescence-labelled peptides as substrate at 8 uM after 90 mins by microfluidic peptide phosphorylation assay
# [12] = target: Serine/threonine-protein kinase pim-1 (Homo sapiens) (UniProt P11309); experiment: Inhibition of human full length PIM1 expressed in baculovirus assessed as substrate phosphorylation using fluorescence-labelled peptides as substrate at 8 uM after 90 mins by microfluidic peptide phosphorylation assay
# [13] = target: Tyrosine-protein kinase BTK (Homo sapiens) (UniProt Q06187); experiment: Inhibition of human full length BTK expressed in baculovirus assessed as substrate phosphorylation using fluorescence-labelled peptides as substrate at 8 uM after 90 mins by microfluidic peptide phosphorylation assay
# [14] = target: T3, Aurora kinase A (Homo sapiens) (UniProt O14965); conditions: 0.1 uM
# T3 sequence (whole entry): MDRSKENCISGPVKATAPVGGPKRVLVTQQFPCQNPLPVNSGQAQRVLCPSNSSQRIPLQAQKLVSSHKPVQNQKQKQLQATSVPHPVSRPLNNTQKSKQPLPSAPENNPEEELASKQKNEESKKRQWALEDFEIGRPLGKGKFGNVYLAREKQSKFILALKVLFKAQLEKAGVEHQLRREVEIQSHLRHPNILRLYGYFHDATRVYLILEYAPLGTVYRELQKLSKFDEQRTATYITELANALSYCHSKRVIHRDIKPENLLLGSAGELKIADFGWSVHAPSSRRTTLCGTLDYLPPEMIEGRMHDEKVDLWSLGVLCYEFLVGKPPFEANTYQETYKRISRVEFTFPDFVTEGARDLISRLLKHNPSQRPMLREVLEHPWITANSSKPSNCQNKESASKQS
# Description: Inhibition of human full length AurA expressed in baculovirus assessed as substrate phosphorylation using fluorescence-labelled peptides as substrate at 0.1 uM after 90 mins by microfluidic peptide phosphorylation assay
# Sequence of Aurora kinase B (Homo sapiens) (Q96GD4 whole entry): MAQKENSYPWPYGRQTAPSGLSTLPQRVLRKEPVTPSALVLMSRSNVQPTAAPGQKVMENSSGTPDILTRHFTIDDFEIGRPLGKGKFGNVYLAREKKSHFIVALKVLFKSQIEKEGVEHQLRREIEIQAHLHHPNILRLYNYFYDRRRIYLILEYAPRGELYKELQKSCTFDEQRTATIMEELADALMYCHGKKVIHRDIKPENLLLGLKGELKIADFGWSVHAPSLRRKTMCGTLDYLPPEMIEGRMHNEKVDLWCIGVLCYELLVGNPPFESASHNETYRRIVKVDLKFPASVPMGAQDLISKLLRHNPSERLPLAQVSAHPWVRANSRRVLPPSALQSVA
# Sequence of Serine/threonine-protein kinase pim-1 (Homo sapiens) (P11309 whole entry, looked up): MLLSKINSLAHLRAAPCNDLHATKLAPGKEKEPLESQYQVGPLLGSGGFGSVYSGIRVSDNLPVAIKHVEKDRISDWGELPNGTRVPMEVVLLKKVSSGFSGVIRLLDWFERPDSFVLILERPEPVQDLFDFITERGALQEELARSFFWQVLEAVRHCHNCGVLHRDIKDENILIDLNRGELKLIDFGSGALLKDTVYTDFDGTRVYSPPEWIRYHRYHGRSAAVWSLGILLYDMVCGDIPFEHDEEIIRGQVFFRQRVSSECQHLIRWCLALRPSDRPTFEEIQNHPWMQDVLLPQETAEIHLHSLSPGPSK
# Sequence of Mitogen-activated protein kinase kinase kinase kinase 4 (Homo sapiens) (O95819 2-1239 limits assumed): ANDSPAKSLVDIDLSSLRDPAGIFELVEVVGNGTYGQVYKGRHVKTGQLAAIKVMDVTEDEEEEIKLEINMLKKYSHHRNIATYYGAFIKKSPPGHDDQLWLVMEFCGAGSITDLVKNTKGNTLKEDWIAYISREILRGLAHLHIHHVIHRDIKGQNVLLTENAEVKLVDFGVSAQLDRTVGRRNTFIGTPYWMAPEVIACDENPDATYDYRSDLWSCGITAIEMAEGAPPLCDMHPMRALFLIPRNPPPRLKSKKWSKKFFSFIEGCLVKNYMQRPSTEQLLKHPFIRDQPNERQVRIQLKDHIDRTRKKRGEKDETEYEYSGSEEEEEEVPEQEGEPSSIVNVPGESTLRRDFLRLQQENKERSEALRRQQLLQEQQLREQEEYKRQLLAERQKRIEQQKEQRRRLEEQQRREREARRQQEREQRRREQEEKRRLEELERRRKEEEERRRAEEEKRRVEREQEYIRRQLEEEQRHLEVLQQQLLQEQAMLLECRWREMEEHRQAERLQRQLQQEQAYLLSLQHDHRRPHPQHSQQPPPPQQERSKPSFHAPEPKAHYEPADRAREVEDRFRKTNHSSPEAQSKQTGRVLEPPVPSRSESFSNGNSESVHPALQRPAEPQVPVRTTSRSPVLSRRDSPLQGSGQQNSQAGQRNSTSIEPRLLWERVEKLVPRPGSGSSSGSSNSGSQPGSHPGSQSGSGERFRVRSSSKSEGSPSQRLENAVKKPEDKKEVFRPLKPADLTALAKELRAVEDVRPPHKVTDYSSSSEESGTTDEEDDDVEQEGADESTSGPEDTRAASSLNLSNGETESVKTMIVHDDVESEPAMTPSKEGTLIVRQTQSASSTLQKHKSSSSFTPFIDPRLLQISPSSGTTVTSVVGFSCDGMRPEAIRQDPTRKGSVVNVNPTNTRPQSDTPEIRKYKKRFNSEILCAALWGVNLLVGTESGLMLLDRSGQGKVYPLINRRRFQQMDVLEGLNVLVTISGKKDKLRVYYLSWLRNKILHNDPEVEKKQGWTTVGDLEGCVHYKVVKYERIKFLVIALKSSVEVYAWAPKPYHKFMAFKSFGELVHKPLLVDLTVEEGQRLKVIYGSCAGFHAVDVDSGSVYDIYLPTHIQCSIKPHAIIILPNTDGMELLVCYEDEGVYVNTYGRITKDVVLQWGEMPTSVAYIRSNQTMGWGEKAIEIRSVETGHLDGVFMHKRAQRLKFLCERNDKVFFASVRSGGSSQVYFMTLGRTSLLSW
# Sequence of Ribosomal protein S6 kinase alpha-2 (Homo sapiens) (Q15349 whole entry): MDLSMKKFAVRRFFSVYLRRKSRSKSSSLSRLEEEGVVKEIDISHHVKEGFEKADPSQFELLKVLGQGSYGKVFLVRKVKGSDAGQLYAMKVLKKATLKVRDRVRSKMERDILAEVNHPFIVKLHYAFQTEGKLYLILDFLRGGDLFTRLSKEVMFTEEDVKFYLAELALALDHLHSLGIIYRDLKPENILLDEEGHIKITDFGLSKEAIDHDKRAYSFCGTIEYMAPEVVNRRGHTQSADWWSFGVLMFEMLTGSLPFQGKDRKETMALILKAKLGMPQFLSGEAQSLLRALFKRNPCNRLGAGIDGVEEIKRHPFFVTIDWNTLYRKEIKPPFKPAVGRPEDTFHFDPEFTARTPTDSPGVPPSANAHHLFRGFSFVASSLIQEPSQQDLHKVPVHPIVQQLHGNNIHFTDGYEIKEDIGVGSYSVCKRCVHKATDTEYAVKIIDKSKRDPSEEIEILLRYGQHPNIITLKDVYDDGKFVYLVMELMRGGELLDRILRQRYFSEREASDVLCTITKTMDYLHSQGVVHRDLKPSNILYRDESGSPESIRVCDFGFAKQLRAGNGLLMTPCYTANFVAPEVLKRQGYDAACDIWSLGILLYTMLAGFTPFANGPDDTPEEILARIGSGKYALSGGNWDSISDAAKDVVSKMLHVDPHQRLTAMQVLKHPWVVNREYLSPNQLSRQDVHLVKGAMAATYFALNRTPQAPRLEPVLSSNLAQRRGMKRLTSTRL
# Sequence of Ribosomal protein S6 kinase alpha-3 (Homo sapiens) (P51812 whole entry): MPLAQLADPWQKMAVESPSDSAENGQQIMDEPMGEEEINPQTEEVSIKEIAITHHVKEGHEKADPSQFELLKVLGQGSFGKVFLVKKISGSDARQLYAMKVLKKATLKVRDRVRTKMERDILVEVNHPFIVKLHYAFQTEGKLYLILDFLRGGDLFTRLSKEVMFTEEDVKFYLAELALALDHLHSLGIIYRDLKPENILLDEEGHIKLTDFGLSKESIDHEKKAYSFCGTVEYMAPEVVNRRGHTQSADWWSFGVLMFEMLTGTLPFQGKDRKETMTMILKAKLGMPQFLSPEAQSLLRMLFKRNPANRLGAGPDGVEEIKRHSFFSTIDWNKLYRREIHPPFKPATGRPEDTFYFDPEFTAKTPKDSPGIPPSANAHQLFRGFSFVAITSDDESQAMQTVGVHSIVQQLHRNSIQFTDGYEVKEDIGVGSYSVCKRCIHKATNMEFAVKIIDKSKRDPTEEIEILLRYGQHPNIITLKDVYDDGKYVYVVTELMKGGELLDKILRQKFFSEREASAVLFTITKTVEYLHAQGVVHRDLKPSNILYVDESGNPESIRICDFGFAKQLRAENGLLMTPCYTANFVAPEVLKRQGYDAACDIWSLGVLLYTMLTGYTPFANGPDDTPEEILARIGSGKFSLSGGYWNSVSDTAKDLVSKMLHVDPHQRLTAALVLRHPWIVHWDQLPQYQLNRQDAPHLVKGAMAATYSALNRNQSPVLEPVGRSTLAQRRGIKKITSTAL
# Sequence of Fibroblast growth factor receptor 3 (Homo sapiens) (P22607 23-806 limits assumed): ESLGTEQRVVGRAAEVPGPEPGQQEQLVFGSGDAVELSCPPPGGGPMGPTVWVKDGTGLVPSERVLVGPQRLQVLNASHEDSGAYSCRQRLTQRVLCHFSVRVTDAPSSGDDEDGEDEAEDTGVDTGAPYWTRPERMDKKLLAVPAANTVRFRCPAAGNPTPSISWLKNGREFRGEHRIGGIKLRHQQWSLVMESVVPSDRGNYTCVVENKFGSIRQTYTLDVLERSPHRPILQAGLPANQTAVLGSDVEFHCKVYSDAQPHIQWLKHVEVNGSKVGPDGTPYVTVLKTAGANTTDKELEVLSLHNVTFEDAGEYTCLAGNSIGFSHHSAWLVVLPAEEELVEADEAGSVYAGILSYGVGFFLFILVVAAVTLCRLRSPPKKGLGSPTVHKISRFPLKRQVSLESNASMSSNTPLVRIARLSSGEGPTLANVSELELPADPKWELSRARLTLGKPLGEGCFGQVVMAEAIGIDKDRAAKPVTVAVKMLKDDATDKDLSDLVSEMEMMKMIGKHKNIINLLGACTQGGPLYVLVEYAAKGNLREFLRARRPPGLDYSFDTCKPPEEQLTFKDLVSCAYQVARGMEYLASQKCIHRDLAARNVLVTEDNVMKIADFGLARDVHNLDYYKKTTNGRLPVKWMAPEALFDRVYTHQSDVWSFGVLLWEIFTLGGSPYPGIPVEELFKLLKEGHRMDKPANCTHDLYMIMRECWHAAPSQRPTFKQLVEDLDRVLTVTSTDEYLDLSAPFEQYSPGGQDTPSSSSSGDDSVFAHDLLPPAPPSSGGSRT
# Sequence of Tyrosine-protein kinase BTK (Homo sapiens) (Q06187 whole entry): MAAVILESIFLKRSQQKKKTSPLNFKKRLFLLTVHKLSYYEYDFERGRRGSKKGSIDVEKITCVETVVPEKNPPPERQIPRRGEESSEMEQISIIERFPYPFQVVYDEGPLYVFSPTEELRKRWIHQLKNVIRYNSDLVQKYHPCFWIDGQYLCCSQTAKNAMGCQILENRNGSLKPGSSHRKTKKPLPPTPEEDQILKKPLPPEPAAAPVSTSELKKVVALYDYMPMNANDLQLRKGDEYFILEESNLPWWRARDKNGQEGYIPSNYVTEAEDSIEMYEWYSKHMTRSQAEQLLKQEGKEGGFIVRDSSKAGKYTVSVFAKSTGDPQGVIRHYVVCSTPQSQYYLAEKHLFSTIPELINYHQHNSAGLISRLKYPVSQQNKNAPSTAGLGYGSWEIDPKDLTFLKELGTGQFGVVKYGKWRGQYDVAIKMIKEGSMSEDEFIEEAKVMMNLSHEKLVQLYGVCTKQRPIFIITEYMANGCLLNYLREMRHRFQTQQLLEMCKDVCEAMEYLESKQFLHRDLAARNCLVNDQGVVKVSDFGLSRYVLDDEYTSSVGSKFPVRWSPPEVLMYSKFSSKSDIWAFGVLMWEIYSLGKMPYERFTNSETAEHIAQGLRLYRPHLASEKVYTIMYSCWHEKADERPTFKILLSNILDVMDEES
structure (smiles),measurement,setting,value
CNCc1ccc(-c2ncnc3[nH]cnc23)cc1,inhibition,Homo sapiens,29.5%
same,inhibition,[1],42%
Clc1ccc(C2(c3ccc(-c4ncnc5[nH]cnc45)cc3)CCNCC2)cc1,inhibition,[2],13%
same,inhibition,[3],87.5%
same,inhibition,[4],11%
NCCc1ccc(-c2ncnc3[nH]cnc23)cc1,inhibition,[5],27%
same,inhibition,[6],48.5%
same,inhibition,[7],78%
c1cnc2[nH]ccc2c1,inhibition,[8],22%
NC1CCN(c2ncnc3[nH]ccc23)CC1,inhibition,[9],0%
COC(=O)c1cnc(Nc2cnc(C#N)cn2)cc1NCC1CCNCC1,inhibition,[10],42%
NCC1CCN(c2ncnc3[nH]ccc23)CC1,inhibition,[11],76%
same,inhibition,[12],9%
same,inhibition,[13],4.5%
C[C@H](CN(C)C)Oc1nc(Nc2cc3cccc(Cl)c3cn2)cnc1C#N,inhibition,[14],0%

# Source: ChEMBL document CHEMBL3132769, “Fragment growing to retain or alter the selectivity of anchored kinase hinge-binding fragments” (Medchemcomm, 2014)
